The values that follow are results of earlier work, collected in the CATMoS acute toxicity set (Mansouri et al. 2021).

The structures appear in SMILES notation. Where “and” joins values, the source holds several entries; their conditions need not be identical. Equal values may be shown once.

This series is described as follows: rat acute oral toxicity. As to conditions: in vivo.
For `O=S1(=O)CC(Cl)C(Cl)C1` (centres undefined), the median lethal dose (LD50) is 482 mg/kg. As for `CC(=O)Nc1cccc(N=Nc2ccc(N(C)C)cc2)c1`, the median lethal dose (LD50) is 5910 mg/kg. As to `C=CCN(CC=C)c1c(C)cc(OC(=O)NC)cc1C`, the 50% lethal dose (LD50) was 89 mg/kg. As for `CCOC1CCCCC1O` (centres undefined), the LD50 is 804 mg/kg. In the case of `CCCC(=O)OCN(C)N=O`, the LD50 is 800 mg/kg. Take `NCc1cccc(CN)c1`: the LD50 is 930 mg/kg. On to `O=C(O)c1cc(O)cc(C(=O)O)c1`, for which the 50% lethal dose (LD50) was 11200 mg/kg.

For the compound `O=[N+]([O-])c1cc2[nH]c(C(F)(F)F)nc2c(Cl)c1Cl`, the median lethal dose (LD50) is 55 mg/kg.

`C[N+](C)(C)CC(O)CC(=O)O` (centres undefined): the median lethal dose (LD50) was 6890 mg/kg. As to `CCCCCOc1ccc(Br)cc1COCCN1CCOCC1`, the 50% lethal dose (LD50) was 1200 mg/kg. Consider `CC(=O)N(/C(=N/c1cccnc1)NC#N)C(C)(C)C`, for which the 50% lethal dose (LD50) is 615 mg/kg. For the compound `Cc1ccc(C(=O)c2ccccc2)c(C(=O)O)c1`, the median lethal dose (LD50) is 5600 mg/kg. In the case of `CCCC(C)CCOC(=O)c1ccccc1C(=O)OCCC(C)CCC` (centres undefined), the median lethal dose (LD50) is 35500 mg/kg.

As to `Nc1ccc(S(=O)(=O)O)cc1`, the LD50 is 5380 mg/kg. With `CCOP(=O)(OCC)OC(=C(Cl)Cl)c1ccc(Cl)cc1Cl`, the LD50 is 30.2 mg/kg. For the compound `O=COCC=Cc1ccccc1`, the median lethal dose (LD50) was 2900 mg/kg. `COc1ccccc1OC`: the LD50 is 890 mg/kg. Regarding `COc1cc(-n2ccnc2)ncn1`, the LD50 was 400 mg/kg. With `CCCN(CCC)C(=O)CN(CC)P(=S)(OCC)OCC`, the LD50 is 2080 mg/kg. Turning to `CC(CO)Oc1ccccc1` (centres undefined), the median lethal dose (LD50) was 2830 mg/kg.

Regarding `CC(O)CN(C)c1ccc(NN)nn1` (centres undefined), the 50% lethal dose (LD50) was 1230 mg/kg. Turning to `COP(=S)(OC)SCC(=O)CNC(=O)Oc1cccc(C(C)C)c1`, the LD50 was 432 mg/kg.

In the case of `CCCCOC(=O)CCC(=O)OCCCC`, the LD50 was 8000 mg/kg. Turning to `C=C(C)C(=O)Nc1ccc(Cl)c(Cl)c1`, the LD50 was 1800 mg/kg. For `CN(C)CCN1C(=O)c2ccccc2Nc2cc(Cl)ccc21`, the LD50 is 242 mg/kg.

For the compound `CCCCCCCCCCCCN1CC(C)OC(C)C1` (centres undefined), the LD50 is 3500 mg/kg.

As for `Nc1ccc(O)c(N)c1`, the LD50 was 240 mg/kg. Take `CN(C)CCN(Cc1cccs1)c1ccccn1`: the 50% lethal dose (LD50) was 200 mg/kg. For `CS(=O)(=O)OC(CCN1CCCCC1)(c1ccccc1)c1ccccc1`, the LD50 is 1240 mg/kg.

Consider `CC(C(=O)O)c1ccc(N2Cc3ccccc3C2=O)cc1` (centres undefined), for which the LD50 was 84 mg/kg and 60.8 mg/kg. In the case of `CN(C)c1ccc(N)c2ccccc12`, the LD50 is 400 mg/kg.

As to `CC12CCC3c4ccc(O)cc4CCC3C1CC[C@@H]2OC(=O)COC(=O)CCCc1ccc(N(CCCl)CCCl)cc1` (some centres undefined), the LD50 is 682 mg/kg.

Take `CC(C)CCCCCc1ccc(O)cc1`: the LD50 was 2150 mg/kg. Take `c1ccc(CCc2ccccc2)cc1`: the LD50 was 4520 mg/kg.

For `CCCC(C(=O)c1ccc(C)cc1)N1CCCC1` (centres undefined), the median lethal dose (LD50) was 620 mg/kg. As for `N#CCCN1C(=O)C(O)N=C(c2ccccc2F)c2cc(Cl)ccc21` (centres undefined), the median lethal dose (LD50) was 3500 mg/kg. Regarding `OCCNCCOc1ccc(C(=C(c2ccccc2)C(F)(F)F)c2ccccc2)cc1`, the LD50 is 1400 mg/kg. As to `CCCCCCOC(=O)CC#N`, the LD50 was 6440 mg/kg. Turning to `COP(=S)(Oc1ccc([N+](=O)[O-])cc1)OC(C)C` (centres undefined), the median lethal dose (LD50) is 5 mg/kg. With `O=C1OC2(c3ccc(O)cc3Oc3cc(O)ccc32)c2ccccc21`, the median lethal dose (LD50) is 6720 mg/kg.

As to `Cc1ccc(/C(=C\CN2CCCC2)c2ccccn2)cc1`, the 50% lethal dose (LD50) was 840 mg/kg.

For `CCOP(=S)(OCC)SCCC(F)=C(F)F`, the 50% lethal dose (LD50) was 681 mg/kg. In the case of `Clc1ccc(N2CCN(C/C=C/c3ccccc3)CC2)nn1`, the LD50 was 483 mg/kg. `CC1(C)CN(c2ccccc2)NC1=O`: the 50% lethal dose (LD50) was 30 mg/kg. `CC(C(O)c1ccccc1)N(C)CCC#N` (centres undefined): the LD50 is 940 mg/kg. On to `CCc1cc(C(N)=S)ccn1`, for which the 50% lethal dose (LD50) is 1320 mg/kg. For `O=NN1CCCCCC1`, the LD50 is 336 mg/kg. As for `CNc1nsc2ccccc12`, the median lethal dose (LD50) was 576 mg/kg. On to `CC=CCCCCCCCC(=O)OC`, for which the 50% lethal dose (LD50) is 3000 mg/kg. `CNCCCC12CCC(c3ccccc31)c1ccccc12`: the LD50 is 760 mg/kg. With `CCCCCCCCCCCCCCCCCCN(C(=O)CC(C(=O)O)S(=O)(=O)O)C(CC(=O)O)C(=O)O` (centres undefined), the median lethal dose (LD50) is 6500 mg/kg. In the case of `C[N+]1(C)CCCCC1COC(=O)C(O)(c1ccccc1)c1ccccc1` (centres undefined), the LD50 is 5080 mg/kg. In the case of `COC(=O)CC(SP(=O)(OC)OC)C(=O)OC` (centres undefined), the LD50 was 103 mg/kg. For the compound `Cc1c(Cl)c(=O)oc2cc(OP(=O)(OCCCCl)OCCCCl)ccc12`, the LD50 is 211 mg/kg. With `Cc1ccn(C(=O)NCCCCCCNC(=O)n2ccc(C)n2)n1`, the LD50 was 4850 mg/kg. Turning to `CCCCB(CCCC)CCCC`, the 50% lethal dose (LD50) was 1120 mg/kg. With `CC1COC(c2ccccc2)O1` (centres undefined), the LD50 was 3000 mg/kg. For the compound `NNc1nncc2ccccc12`, the LD50 was 90 mg/kg. As for `CC(C)(C)S`, the LD50 was 4730 mg/kg.
